# Assay results published in article PMC6458850, “CXXC5 mediates growth plate senescence and is a target for enhancement of longitudinal bone growth” (Life Science Alliance, 2019).
# Key:
# tibial growth plate = assay: Estrogen-induced growth plate senescence in Cxxc5+/+ and Cxxc5−/− mice; format: in vivo, mouse; conditions: E2 cypionate 70 μg/kg i.m. once a week for 3 wk
# Procedure: Figure 2. The effects of estrogen on CXXC5 expression and the mediation of growth plate senescence. (A) Immunoblotting (upper) and quantitative analyses (mean ± SEM, n = 3) (lower) in C28/I2 cells treated with 100 nM E2 (17β-estradiol) for 0, 1, 3, 6, 24, 48, or 72 h. (B) Immunocytochemical staining (left) and quantitative analyses of the fluorescent intensity (mean ± SEM, n = 3; t test, **P < 0.005 and ***P < 0.0005) (right) in C28/I2 cells treated with 100 nM E2 for 40 h. Scale bars, 100 μm. (C–E) Tibial organ cultures (E15.5) incubated with 100 nM E2 for 6 d. Representative images at 6 d (C, left) and quantitative analyses of the growth changes (mean ± SEM, n = 5; t test, ***P < 0.0005) (C, right). Scale bar, 1 mm. H&E staining (D, left) and quantification of each zone height (mean ± SEM, n = 5; t test, *P < 0.05 and **P < 0.005) (D, right) in the growth plate. Scale bar, 200 μm. IHC analyses of β-catenin and CXXC5 (E). Scale bars, 50 μm. (F) 3-wk-old Cxxc5^+/+ and Cxxc5^−/− mice were treated with E2 cypionate (70 μg/kg) by i.m. injection once a week for 3 wk (n = 3–4). Representative images of H&E staining and IHC analyses for BrdU, β-catenin, and CXXC5 in the growth plates of proximal tibiae are shown. The area within the dashed lines indicates the growth plate zone. Black and white scale bars, 50 μm. Yellow scale bar, 20 μm. RZ, resting zone; PZ, proliferative zone; HZ, hypertrophic zone. […]
# tibiae (E15.5) = assay: Tibial organ culture (ex vivo); design: species or system mouse; conditions: 100 nM, 6 d
# Procedure: Figure 2. The effects of estrogen on CXXC5 expression and the mediation of growth plate senescence. (A) Immunoblotting (upper) and quantitative analyses (mean ± SEM, n = 3) (lower) in C28/I2 cells treated with 100 nM E2 (17β-estradiol) for 0, 1, 3, 6, 24, 48, or 72 h. (B) Immunocytochemical staining (left) and quantitative analyses of the fluorescent intensity (mean ± SEM, n = 3; t test, **P < 0.005 and ***P < 0.0005) (right) in C28/I2 cells treated with 100 nM E2 for 40 h. Scale bars, 100 μm. (C–E) Tibial organ cultures (E15.5) incubated with 100 nM E2 for 6 d. Representative images at 6 d (C, left) and quantitative analyses of the growth changes (mean ± SEM, n = 5; t test, ***P < 0.0005) (C, right). Scale bar, 1 mm. H&E staining (D, left) and quantification of each zone height (mean ± SEM, n = 5; t test, *P < 0.05 and **P < 0.005) (D, right) in the growth plate. Scale bar, 200 μm. IHC analyses of β-catenin and CXXC5 (E). Scale bars, 50 μm. (F) 3-wk-old Cxxc5^+/+ and Cxxc5^−/− mice were treated with E2 cypionate (70 μg/kg) by i.m. injection once a week for 3 wk (n = 3–4). Representative images of H&E staining and IHC analyses for BrdU, β-catenin, and CXXC5 in the growth plates of proximal tibiae are shown. […] Tibial length was measured before treatment and after 6 d in culture. The samples were then prepared for paraffin embedding, sectioned, and analyzed by H&E and IHC staining.
# [1] = Toxicity observations in mice treated with KY19382 for 10 wk; format: in vivo, mouse; conditions: 0.1 mg/kg i.p. daily for 10 wk
# Procedure: Figure S9. The effects of KY19382 on articular cartilage and liver tissues, or weight. Data are shown from mice used in Fig 5J. (A, B) H&E staining of articular cartilage (A) and liver (B) tissues. (C) During treatment, the weights of mice were measured every 5–7 d (mean ± SEM, n = 7∼15). Scale bars, 100 μm.
# Cxxc5^−/− mice were established in a previous study ([Kim et al, 2015]). To manipulate growth plate senescence by estrogen, 3-wk-old Cxxc5^+/+ and Cxxc5^−/− male mice received weekly i.m. injections of either 70 μg/kg estradiol (E2) cypionate (Sigma-Aldrich) or vehicle (cottonseed oil) for 3 wk. To investigate the effects of KY19382 treatment on longitudinal bone growth, C57BL/6 male mice were purchased from KOATECH (Gyeonggido, Korea). KY19382 (0.1 mg/kg) was administered daily by i.p. injection to 3- and 7-wk-old mice for 2 wk or to 3-wk-old mice for 10 wk. For BrdU labeling experiments, the mice were i.p. injected with 50 mg/kg BrdU (Sigma-Aldrich) before 24 h to euthanize. All animal procedures were approved by the Institutional Animal Care and Use Committee of Yonsei University (Korea) and conducted based on the guidelines of the Korean Food and Drug Administration.
Structure (SMILES),structural senescence of the tibial growth plate (tibial growth plate),tibial length in ex vivo tibial culture (tibiae (E15.5)),body weight during treatment [1],histology of articular cartilage and liver tissues [1]
"C[C@]12CC[C@@H]3c4ccc(O)cc4CC[C@H]3[C@@H]1CC[C@@H]2O [E2, 17β-estradiol]",hardly observed,reduced tibial length,–,–
"CON=C1C(=C2C(=O)Nc3cc(Cl)c(Cl)cc32)Nc2ccccc21 [KY19382, 5,6-dichloroindirubin-3′-methoxime]",–,–,no difference in weight,no histological abnormalities were detected
